The values that follow come from ChEMBL document CHEMBL2040824, “The impact of ionization States of matrix metalloproteinase inhibitors on docking-based inhibitor design” (ACS Med Chem Lett, 2011).

Each structure is given as a SMILES string. Active and inactive are the calls of the source. The rule behind the calls is not given here.

The first test deals with Matrix metalloproteinase-9 (Homo sapiens, UniProt P14780). The test is described as follows: Inhibition of MMP9.
Sequence of Matrix metalloproteinase-9 (P14780 whole entry): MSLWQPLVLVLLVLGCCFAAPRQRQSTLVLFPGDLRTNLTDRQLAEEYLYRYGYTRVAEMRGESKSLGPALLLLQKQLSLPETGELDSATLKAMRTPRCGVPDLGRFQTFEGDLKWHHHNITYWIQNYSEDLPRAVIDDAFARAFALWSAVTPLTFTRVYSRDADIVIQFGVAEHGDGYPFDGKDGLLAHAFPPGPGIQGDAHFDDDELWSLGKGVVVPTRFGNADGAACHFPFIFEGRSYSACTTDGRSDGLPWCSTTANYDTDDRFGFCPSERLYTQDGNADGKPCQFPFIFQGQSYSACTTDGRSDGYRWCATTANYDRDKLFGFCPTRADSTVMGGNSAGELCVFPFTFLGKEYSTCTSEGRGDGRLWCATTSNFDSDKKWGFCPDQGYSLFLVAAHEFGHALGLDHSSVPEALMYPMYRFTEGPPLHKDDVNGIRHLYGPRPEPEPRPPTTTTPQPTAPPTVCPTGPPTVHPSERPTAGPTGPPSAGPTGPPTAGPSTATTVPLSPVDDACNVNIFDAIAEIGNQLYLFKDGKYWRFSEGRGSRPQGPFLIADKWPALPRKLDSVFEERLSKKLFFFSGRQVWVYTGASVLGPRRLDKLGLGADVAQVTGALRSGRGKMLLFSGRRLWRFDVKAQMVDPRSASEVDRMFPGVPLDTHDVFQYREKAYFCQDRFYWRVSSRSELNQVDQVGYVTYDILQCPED
The IC50 is the point on the concentration scale where inhibition reaches its midpoint. Consider `C[C@@H]1OC(C)(C)O[C@H]1C(CS(=O)(=O)c1ccc(Oc2ccc(OC(F)(F)F)cc2)cc1)N(O)C=O` (some centres not stated), for which the half-inhibitory concentration (IC50) turned out to be 1.1 nM.

Turning to `CC1(C)C[C@@H](C(CS(=O)(=O)c2ccc(Oc3ccc(OC(F)(F)F)cc3)cc2)N(O)C=O)N(S(C)(=O)=O)C1` (some centres not stated), the midpoint of inhibition, the IC50, lay at 2 nM.

Consider `CC1(C)OC[C@H](C(CS(=O)(=O)c2ccc(Oc3ccc(OC(F)(F)F)cc3)cc2)N(O)C=O)O1` (some centres not stated), for which the 50% inhibitory concentration (IC50) was 0.5 nM.

`O=CN(O)C(CS(=O)(=O)c1ccc(Oc2ccc(OC(F)(F)F)cc2)cc1)C(CO)CO` (configuration not stated) returned a concentration for half-maximal inhibition (IC50) of 0.49 nM.

The compound `CC1(C)NC(=O)N(CC(CS(=O)(=O)c2ccc(-c3ccc(OC(F)(F)F)cc3)cc2)N(O)C=O)C1=O` (configuration not stated) registered a half-maximal inhibitory concentration (IC50) of 0.34 nM.

Consider `CCC1(CC)OC[C@H](C(CS(=O)(=O)c2ccc(Oc3ccc(OC(F)(F)F)cc3)cc2)N(O)C=O)O1` (some centres not stated), for which the half-maximal inhibitory concentration (IC50) was 1.1 nM.

As for `CC1(C)NC(=O)N(CC(CS(=O)(=O)c2ccc(Oc3ccc(Cl)cc3)cc2)N(O)C=O)C1=O` (configuration not stated), the IC50 stood at 37 nM.

The subject of the next test is SVR. Briefly: Antiproliferative activity against mouse SVR cells at 20 ug/ml after 48 hrs by Coulter counting method. Type of test: functional, cell-based.
Take `COc1cc(/C=C/C(=O)CC(=O)/C=C/c2ccc(O)c(OC)c2)ccc1O`: the result was Active.

For `Brc1ccc(/C=N/Nc2nc(-c3ccccc3)cc(-c3ccccc3)n2)cc1`, the outcome was Active.

For the compound `Cc1cc(C)n(-c2nc(-c3ccccc3)cc(-c3ccccc3)n2)n1`, the result was Active.

Regarding `Cc1cccc(-c2nnc(-c3cccc(NC(=O)c4ccco4)c3)o2)c1`, the outcome was Active.

As for `CN(C)c1ccc(/C=C/C(=O)c2ccco2)cc1`, the outcome was Active.
